This is an account of results in patent US10995177B2 (priority 2018, dated 2021).

Test [1] has as its system K. pneumoniae 9170. Briefly: Resistance development by serial passaging at sub-lethal concentrations. The test is classed as cell-based, Klebsiella pneumoniae. As for the experimental part: To test bacterial resistance and resistance prevention, a sub-lethal dose (so as to not kill all bacteria) of the respective antimicrobials was repeatedly applied to K. pneumoniae samples for 24 hours at each passage, wherein the bacteria were allowed to replicate and/or mutate. MIC values of the respective antimicrobials were then measured after each repetition to monitor MIC changes. An increase in MIC value indicates development of resistance in the bacteria. In particular, samples of K. pneumoniae 9170 bacteria were first exposed to the respective antimicrobials (e.g., All polymers having Structures I, IV and V, imipenem and levofloxacin) for the determination of MICs as described above. Subsequently, 50 μL of bacteria from wells of 0.5×MIC were harvested and grown overnight, and then subjected to MIC determination for up to 20 similar serial passages (e.g., 20 single applications once a day for 20 days).
Unfortunately, antibiotic resistance has raised a global concern over the past few years.

The subject of test [2] is MDR clinical isolates of K. pneumoniae, E. coli, A. baumannii, P. aeruginosa, E. faecium and MRSA. Briefly: MIC by broth microdilution against different types and strains of MDR clinically isolated bacteria. The following applies: Gram-negative and Gram-positive MDR clinical isolates. In kind it is cell-based.
Experimental: The MICs of the guanidinium functionalized polymers and the respective antibiotics against the clinical isolates were measured via the broth microdilution method. In accordance with the broth microdilution method, the MDR microbes including one or more strains of K. pneumoniae, E. coli, A. baumannii, P. aeruginosa, E. coli, E. faecium, and MRSA were harvested in mid exponential growth phase after grown overnight in Mueller-Hinton (MH) agar plates at 37° C. The antimicrobial agents were prepared in MH broth (MHB) at various concentrations. The bacteria suspensions were then diluted with phosphate-buffer saline (PBS, PH 7.4) to adjust the turbidity approximately to the Standard McFarland 0.6, which corresponds to the concentration of 1×10^8 colony-forming unit (CFU)/mL, after which the bacteria suspension was further diluted by 100-fold with MHB (1×10^6 CFU/mL). Subsequently, equal volumes (100 microliters (μL)) of bacterial suspension and agent solution prepared previously were mixed in each well of a 96-well plate and incubated for 18 h at 37° C. Broth containing bacteria alone was employed as the negative control, and each MIC was tested in triplicate.
To facilitate comparison, imipenem and vancomycin, typical first-line therapies against Gram-negative and Gram-positive pathogens, were employed as standards or control antibiotics.
In test [3] the test system is K. pneumoniae 9170. Briefly: In vivo efficacy (ED50/ED95) in bacteria-caused lung infection mouse model. Further details: species or system mice. The conditions noted are these: Klebsiella pneumoniae, 9170, ip.
Experimental: In this regard, immunosuppressed mice (7 weeks old) were used for the following in vivo studies. Immunosuppression was induced by intraperitoneal injection of 200 mg/kg cyclophosphamide 4 days prior to infection. The mice were anesthetized by intraperitoneal injection of 1% pentobarbital (40 mg/kg, Sigma). The mice were then infected with K. pneumoniae 9170 to determine the minimum lethal dose for subsequent effective does and efficacy testing. Overnight cultures of K. pneumoniae 9170 were harvested and suspended in PBS. Subsequently, the cyclophosphamide-pretreated mice were intranasally injected with 25.0 μL of the bacterial suspension at designated doses (e.g., 1.0×10^8, 2.5×10^8, 5×10^8, 1.0×10^9, 2.0×10^9 CFU/mL, six mice per group). The minimum lethal dose (LD), the lowest concentration sufficient to cause 100% mortality, was determined from the survival rate of mice at 5 days post-infection by the BLISS method.
The effective doses ED50 and ED95 doses of the respective polymers and imipenem for comparison, were tested using a bacteria-caused lung infection mouse model as follows. Firstly, a bacterial suspension with the minimum lethal dose (25.0 μL) was introduced to the above described cyclophosphamide-pretreated mice intranasally. […] The number of surviving mice in each group was recorded for 5.0 day to estimate ED50 and ED95 via the BLISS method.

As for `C[C@H]1COc2c(N3CCN(C)CC3)c(F)cc3c(=O)c(C(=O)O)cn1c23` [levofloxacin], the results for the “increase of MIC” value with K. pneumoniae 9170 [1] (by the 7th passage) and in the test on K. pneumoniae 9170 [1] (by the 20th passage) were 2 times and 16 fold, respectively.
For `CN[C@H](CC(C)C)C(=O)N[C@H]1C(=O)N[C@@H](CC(N)=O)C(=O)N[C@H]2C(=O)N[C@H]3C(=O)N[C@H](C(=O)N[C@H](C(=O)O)c4cc(O)cc(O)c4-c4cc3ccc4O)[C@H](O)c3ccc(c(Cl)c3)Oc3cc2cc(c3O[C@@H]2O[C@H](CO)[C@@H](O)[C@H](O)[C@H]2O[C@H]2C[C@](C)(N)[C@H](O)[C@H](C)O2)Oc2ccc(cc2Cl)[C@H]1O` [vancomycin], the “spectrum of antibacterial activity” value in test [2] is “only demonstrated efficacy against Gram-positive strains”.
As for `C[C@@H](O)[C@H]1C(=O)N2C(C(=O)O)=C(SCCN=CN)C[C@H]12` [imipenem], the 50% effect level with K. pneumoniae 9170 [3] (ED50) was put at a dose of 5.93 mg/kg. The “increase of MIC” value with K. pneumoniae 9170 [1] (by the 11th passage) was 2 times; in the test on K. pneumoniae 9170 [1] (by the 20th passage), 4 fold.

As a reminder, the ED50 is the dose at which the effect has come halfway, by size or by number of responders. A high value points to weaker potency.
